{
  "source": "patent US9914730B2",
  "about": "“Azaquinazoline inhibitors of Atypical protein Kinase C” (Ignyta, Inc., priority 2012, dated 2018)",
  "data": [
    {"molecular_target": "T1, full-length human PKCι (Homo sapiens, UniProt P41743)", "T1 construct": "Recombinant, full-length human PKCι expressed in Sf21 insect cells is also commercially available; purchased; host or cells: Sf21 insect cells", "T1 sequence (P41743 1-596)": "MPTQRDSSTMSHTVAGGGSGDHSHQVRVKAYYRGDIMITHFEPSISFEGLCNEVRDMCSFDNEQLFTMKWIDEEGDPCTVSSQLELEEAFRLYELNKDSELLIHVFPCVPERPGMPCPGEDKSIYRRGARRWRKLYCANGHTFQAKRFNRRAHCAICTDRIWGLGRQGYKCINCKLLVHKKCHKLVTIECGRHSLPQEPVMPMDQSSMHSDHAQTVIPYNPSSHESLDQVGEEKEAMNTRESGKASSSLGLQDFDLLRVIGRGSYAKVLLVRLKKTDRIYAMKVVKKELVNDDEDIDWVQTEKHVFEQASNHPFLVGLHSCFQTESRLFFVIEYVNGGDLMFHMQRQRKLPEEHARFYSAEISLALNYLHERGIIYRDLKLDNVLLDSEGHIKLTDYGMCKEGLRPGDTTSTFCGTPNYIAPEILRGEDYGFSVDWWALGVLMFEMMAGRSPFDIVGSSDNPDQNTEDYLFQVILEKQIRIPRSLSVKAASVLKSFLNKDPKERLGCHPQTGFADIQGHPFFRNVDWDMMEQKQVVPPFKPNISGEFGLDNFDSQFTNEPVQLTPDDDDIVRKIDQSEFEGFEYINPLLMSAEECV", "assay": "PKCι IC50 IMAP assay, full-length PKCι at 150 μM ATP", "assay_type": "biochemical", "settings": "read-out: IC50 in IMAP assay against full length PKCi at 150 μM ATP", "source_text": "Assays are based on the ability of PKCι to phosphorylate a commercially available peptide substrate in vitro. The peptide substrate is FAM-PKCε pseudopeptide derived peptide, and comprises the amino acid sequence 5FAM-[…]-NH2. Recombinant, full-length human PKCι expressed in Sf21 insect cells is also commercially available. Recombinant, kinase-domain human PKCι is expressed and purified in-house.\nThe procedure below explains how dose response curves for inhibitors of PKCι are obtained. The screen described is for a 384 well format but the assay can be adapted to 1536 or other formats as required.\nCompounds to be tested are dissolved in 100% DMSO. Compounds are diluted as required to give a final concentration of 4% DMSO (v/v) in the assay. 1 μl is plated into 384 well black low-binding flat bottomed assay plates which are used immediately. Dilutions and additions of compound to assay plates are carried out using Matrix WellMate® and Matrix PlateMate® Plus liquid handling systems.\nOn the day of the screen PKCι/substrate working solution, and ATP working solution, are prepared in buffer containing 20 mM tris-HCl pH7.5, 10 mM MgCl2, 0.01% Triton X100, 250 μM EGTA and 1 mM DTT. The final concentration of PKCι used varies depending on the batch of protein but is typically 15 pM. The final concentration of peptide substrate in the assay is 100 nM. ATP is used at a final concentration of 150 μM or 25 μM in the assays containing full-length or kinase-domain PKCι respectively, which corresponds to five times or equal to the KM^APP for ATP for each enzyme, respectively. The final buffer concentration in the assay is 18 mM tris-HCl pH7.5, 9 mM MgCl2, 0.009% Triton X100, 225 μM EGTA and 0.9 mM DTT. Relevant controls are included, namely no compound and no enzyme. 5 μl PKCι/substrate working solution at 30 pM and 200 nM, respectively, is added to the wells, followed by 4 μl ATP working solution at 375 μM or 62.5 μM for full-length or kinase-domain PKCι respectively, using a 16 channel Matrix pipette. The reaction is allowed to incubate for 60 minutes at room temperature, before the reaction is stopped and developed by the addition of 20 μl IMAP™ development reagent (Molecular Devices). IMAP development reagent consists of 0.25% (v/v) IMAP progressive binding reagent, 17% (v/v) IMAP progressive binding buffer A and 3% (v/v) IMAP progressive binding buffer B. The plates are then incubated for 2 hours at room temperature before being read using an appropriate plate reader, for example a Molecular Devices HT Analyst or a BMG Pherastar. Plates are read using a fluorescence polarisation protocol with excitation at 485 nm and emission at 530 nm, and dichroic mirror at 505 nm.\nPercentage inhibition values are calculated from fluorescence polarisation values, using the no compound and no enzyme control values as 0% and 100% inhibition, respectively. IC50 determination is performed with ExcelFit software (IDBS) using curve fit 205. Z′ factors are determined for each plate tested and are all above 0.5.", "units": {"IC50": "nM"}, "values": [
      {"compound": "FC(F)(F)C1CN(c2nc(-c3ccncc3)nc3cnccc23)CCN1", "note": "(stereo not shown) [Example 59, 1-[2-(pyridin-4-yl)-pyrido[3,4-d]-pyrimidin-4-yl]-3-(trifluoromethyl)-piperazine]", "IC50": "10000 to 40000"},
      {"compound": "CN(C[C@@H](N)Cc1ccccc1)c1nc(-c2ccncc2)nc2cnccc12", "note": "[Example 26, N-[(2S)-2-amino-3-phenylpropyl]-N-methyl-2-(pyridin-4-yl)pyrido[3,4-d]-pyrimidin-4-amine]", "IC50": "10000 to 40000"},
      {"compound": "c1cc(-c2nc(N3CCNCC3)c3c(C4CCC4)cncc3n2)c2cc(C3CCCO3)[nH]c2n1", "note": "(stereo not shown) [Example 2185, 5-Cyclobutyl-4-piperazin-1-yl-2-[2-(tetrahydro-furan-2-yl)-1H-pyrrolo[2,3-b]pyridin-4-yl]-pyrido[3,4-d]pyrimidine]", "IC50": "< 100"},
      {"compound": "CN(c1nc(-c2ccnc(Nc3c(F)cccc3F)c2)nc2cncc(C3CC3)c12)C1CCN(C2CCC2)CC1", "note": "[Example 2110, (1-Cyclobutyl-piperidin-4-yl)-{5-cyclopropyl-2-[2-(2,6-difluoro-phenylamino)-pyridin-4-yl]-pyrido[3,4-d]pyrimidin-4-yl}-methyl-amine]", "IC50": "100 to 1000"},
      {"compound": "c1ccc(CC2CN(c3nc(N[C@@H]4CCNC4)c4ccncc4n3)CCO2)cc1", "note": "(stereo partly drawn) [Example 1001, [2-(2-Benzyl-morpholin-4-yl)-pyrido[3,4-d]pyrimidin-4-yl]-(R)-pyrrolidin-3-yl-amine]", "IC50": "1000 to 10000"},
      {"compound": "[2H]C([2H])([2H])c1cc2c(-c3nc(N4CCNCC4)c4c(C5CC5)cncc4n3)ccnc2[nH]1", "note": "[Example 1228, 5-Cyclopropyl-4-piperazin-1-yl-2-(2-triduteriomethyl-1H-pyrrolo[2,3-b]pyridin-4-yl)-pyrido[3,4-d]pyrimidine]", "IC50": "< 100"},
      {"compound": "COc1cncc2nc(-c3ccnc(NC(=O)Cc4cccc(C#N)c4)c3)nc(N3CCC(O)CC3)c12", "note": "[Example 403, 2-(3-Cyano-phenyl)-N-{4-[4-(4-hydroxy-piperidin-1-yl)-5-methoxy-pyrido[3,4-d]pyrimidin-2-yl]-pyridin-2-yl}-acetamide]", "IC50": "100 to 1000"},
      {"compound": "N#Cc1ccc(Nc2cc(-c3nc(N4CCNCC4)c4c(C5CC5)cncc4n3)ccn2)cc1F", "note": "[Example 631, 4-[4-(5-Cyclopropyl-4-piperazin-1-yl-pyrido[3,4-d]pyrimidin-2-yl)-pyridin-2-ylamino]-2-fluoro-benzonitrile]", "IC50": "100 to 1000"},
      {"compound": "CN1CCN(c2cccc(Nc3cc(-c4nc(N5CCC(O)(O)C(F)(F)C5)c5c(C6CC6)cncc5n4)ccn3)c2)CC1", "note": "[Example 747, 1-(5-Cyclopropyl-2-{2-[3-(4-methyl-piperazin-1-yl)-phenylamino]-pyridin-4-yl}-pyrido[3,4-d]pyrimidin-4-yl)-3,3-difluoro-piperidine-4,4-diol]", "IC50": "< 100"},
      {"compound": "COc1cncc2nc(-c3ccncc3)nc(N3CCN(CC#N)CC3)c12", "note": "[Example 87, 2-{4-[5-methoxy-2-(pyridin-4-yl)pyrido[3,4-d]pyrimidin-4-yl]piperazin-1-yl}acetonitrile]", "IC50": "10000 to 40000"},
      {"compound": "Fc1cccc(F)c1Nc1cc(-c2nc(C3=CCNCC3)c3c(C4CC4)cncc3n2)ccn1", "note": "[Example 789, {4-[5-Cyclopropyl-4-(1,2,3,6-tetrahydro-pyridin-4-yl)-pyrido[3,4-d]pyrimidin-2-yl]-pyridin-2-yl}-(2,6-difluoro-phenyl)-amine]", "IC50": "100 to 1000"},
      {"compound": "Fc1cccc(F)c1Nc1cc(-c2nc(N[C@H]3CCNC3)c3c(C4CC4)cncc3n2)ccn1", "note": "[Example 2034, {5-Cyclopropyl-2-[2-(2,6-difluoro-phenylamino)-pyridin-4-yl]-pyrido[3,4-d]pyrimidin-4-yl}-(S)-pyrrolidin-3-yl-amine]", "IC50": "< 100"},
      {"compound": "COc1cncc2nc(-c3ccnc4[nH]c(Cc5ccccc5F)cc34)nc(N3CCNCC3)c12", "note": "[Example 1203, 2-[2-(2-Fluoro-benzyl)-1H-pyrrolo[2,3-b]pyridin-4-yl]-5-methoxy-4-piperazin-1-yl-pyrido[3,4-d]pyrimidine]", "IC50": "< 100"},
      {"compound": "(3S)-3-benzyl-1-[6- chloro-2-(pyridin-4- yl)pyrido[3,4-d]- pyrimidin-4- yl]piperazine [Example 14]", "IC50": "100 to 1000"},
      {"compound": "CC1(C)CC(Nc2cc(-c3nc(N4CCNCC4)c4c(C5CC5)cncc4n3)ccn2)c2ccccc21", "note": "(stereo not shown) [Example 2177, [4-(5-Cyclopropyl-4-piperazin-1-yl-pyrido[3,4-d]pyrimidin-2-yl)-pyridin-2-yl]-(3,3-dimethyl-indan-1-yl)-amine]", "IC50": "< 100"},
      {"compound": "Fc1c(-c2nc(N3CCNCC3)c3c(C4CC4)cncc3n2)ccnc1Nc1ccccc1", "note": "[Example 701, [4-(5-Cyclopropyl-4-piperazin-1-yl-pyrido[3,4-d]pyrimidin-2-yl)-3-fluoro-pyridin-2-yl]-phenyl-amine]", "IC50": "10000 to 40000"},
      {"compound": "Cc1ccc(C)c(Nc2cc(-c3nc(N4CCNCC4)c4c(C5CC5)cncc4n3)ccn2)c1", "note": "[Example 505, [4-(5-Cyclopropyl-4-piperazin-1-yl-pyrido[3,4-d]pyrimidin-2-yl)-pyridin-2-yl]-(2,5-dimethyl-phenyl)-amine]", "IC50": "< 100"},
      {"compound": "COc1cncc2nc(-c3ccncc3)nc(NC[C@@H](N)Cc3ccccc3)c12", "note": "[Example 9, N-[(2S)-2-amino-3-phenylpropyl]-5-methoxy-2-(pyridin-4-yl)pyrido[3,4-d]-pyrimidin-4-amine]", "IC50": "< 100"},
      {"compound": "Fc1cnc2[nH]c(C(F)(F)F)cc2c1-c1nc(N2CCNCC2)c2c(C3CC3)cncc2n1", "note": "[Example 1232, 5-Cyclopropyl-2-(5-fluoro-2-trifluoromethyl-1H-pyrrolo[2,3-b]pyridin-4-yl)-4-piperazin-1-yl-pyrido[3,4-d]pyrimidine]", "IC50": "< 100"},
      {"compound": "[4-(5-Cyclopropyl- 4-piperazin-1-yl- pyrido[3,4- d]pyrimidin-2-yl)- pyridin-2-yl]-(2,3- dichloro-phenyl)- amine [Example 543]", "IC50": "< 100"},
      {"compound": "c1cc(Nc2cc(-c3nc(N4CCNCC4)c4c(C5CC5)cncc4n3)ccn2)c2nonc2c1", "note": "[Example 2104, Benzo[1,2,5]oxadiazol-4-yl-[4-(5-cyclopropyl-4-piperazin-1-yl-pyrido[3,4-d]pyrimidin-2-yl)-pyridin-2-yl]-amine]", "IC50": "< 100"},
      {"compound": "CN1CCN(c2cccc(Nc3cc(-c4nc(N5CCC[C@@H](O)C5)c5c(C6CC6)cncc5n4)ccn3)n2)CC1", "note": "[Example 781, (R)-1-(5-Cyclopropyl-2-{2-[6-(4-methyl-piperazin-1-yl)-pyridin-2-ylamino]-pyridin-4-yl}-pyrido[3,4-d]pyrimidin-4-yl)-piperidin-3-ol]", "IC50": "100 to 1000"},
      {"compound": "Fc1cccc(F)c1Nc1cc(-c2nc(N3CCNCC3)c3c(C4CC4)cncc3n2)ccn1", "note": "[Example 264, [4-(5-Cyclopropyl-4-piperazin-1-yl-pyrido[3,4-d]pyrimidin-2-yl)-pyridin-2-yl]-(2,6-difluoro-phenyl)-amine]", "IC50": "< 100"},
      {"compound": "CC1(C)CNCCC1Nc1nc(-c2ccnc(Nc3ncc(F)cc3F)c2)nc2cncc(C3CC3)c12", "note": "(stereo not shown) [Example 2175, {5-Cyclopropyl-2-[2-(3,5-difluoro-pyridin-2-ylamino)-pyridin-4-yl]-pyrido[3,4-d]pyrimidin-4-yl}-(3,3-dimethyl-piperidin-4-yl)-amine]", "IC50": "< 100"},
      {"compound": "c1cc(-c2nc(N3CCNCC3)c3c(C4CCC4)cncc3n2)c2cc[nH]c2n1", "note": "[Example 2082, 5-Cyclobutyl-4-piperazin-1-yl-2-(1H-pyrrolo[2,3-b]pyridin-4-yl)-pyrido[3,4-d]pyrimidine]", "IC50": "< 100"}
    ]}
  ]
}
